Experimental data taken from patent US20120164203A1, “PROCESS FOR PREPARATION OF STABLE, MICROENCAPSULATED AND SUSTAINED RELEASE BIOCIDAL ACTIVES AND COMPOSITION THEREOF” (priority 2009, published 2012).

Tests used:
[1] = test system: Staphylococcus aureus ATCC 6538; assay: Antimicrobial activity (log reduction) on flexible PVC surface, Z 2801:2000; assay type: cell-based; details: 24 hrs incubation
Experimental: (§1) The aqueous biocidal dispersion containing encapsulated biocide was prepared as described in example 19 to provide 20% BIT (prepared as described in Example 5). The dispersion was incorporated into flexible PVC using a Brabender. The plastic samples containing different BIT concentrations were tested according to the Japanese HS Z 2801:2000 entitled “Antimicrobial products-test for antimicrobial activity and efficacy.”
(§2) Briefly, samples were inoculated on the surface with bacterial strains such as Escherichia coli ATCC 11229 or Staphylococcus aureus ATCC 6538. After 24 hrs of incusbation, the samples were examined to determine the number of bacterial count left on the surface of the sample. A reduction in the bacterial population or count was estimated based on the plate count of the control (untreated or blank) sample and treated samples. The results of this activity indicate that aqueous biocidal dispersion prepared according to the present invention provides better antibacterial activity through larger log reduction and is shown in Table 3.

[2] = test system: Escherichia coli ATCC 11229; assay: as above; assay type: cell-based; details: 24 hrs incubation
Experimental: as §1, §2

[3] = Analytical determination of active ingredient in the leachate (water, UV-Vis); assay type: physicochemical; details: active 5% in water
Experimental: The active ingredient is added (5%) to required amount of water. After a certain amount of time, the leachate is collected through a filter and the same amount of water replaced. The amount of active ingredients of each leachate is determined analytically by UV-Vis.

[4] = Analytical determination of active ingredient leaching out of a paint film (UV-Visible); assay type: physicochemical; details: PVA paint film, total IPBC incorporated 2000 ppm
Experimental: The active ingredient is added to PVA paint to a final concentration of 2000 ppm. Drawdown of the paint samples are prepared by casting a 3-mil film onto drawdown paperboard (Lanetta). The drawdown samples are allowed to dry at room temperature for 24 hrs. A sample of 2×6 cm is cut. The cut samples are then placed in 100 ml of water in a closed beaker for the different duration of time limits. At different time intervals the water is collected and replaced with the same amount of water. The quantity of the active ingredient present in each leachate is determined by UV-Visible spectroscopic method.

O=c1[nH]sc2ccccc12 [BIT, 1,2-benzisothiazoline-3-one]
Antimicrobial Activity (Log Reduction) S. aureus ([1]; 100 ppm in flexible PVC): 0.2 | Antimicrobial Activity (Log Reduction) S. aureus ([1]; 250 ppm in flexible PVC): 0.6 | Antimicrobial Activity (Log Reduction) E. coli ([2]; 100 ppm in flexible PVC): 0.9 | Antimicrobial Activity (Log Reduction) E. coli ([2]; 250 ppm in flexible PVC): 2.5

CN(C)C(=O)Nc1ccc(Cl)c(Cl)c1 [Non-encapsulated Diuron, Diuron]
Diuron in water (in ppm) ([3]; leaching time 30 minutes): 53.6 ppm | Diuron in water (in ppm) ([3]; leaching time 2 hrs): 51.4 ppm | Diuron in water (in ppm) ([3]; leaching time 4 hrs): 54.6 ppm | Diuron in water (in ppm) ([3]; leaching time 20 hrs): 52.0 ppm

CCCCNC(=O)OCC#CI [Non-encapsulated IPBC, 3-iodo-2-propargyl butyl carbamate]
IPBC (in ppm) leached from Paint film ([4]; leaching time 1 hr): 1050 ppm | IPBC (in ppm) leached from Paint film ([4]; leaching time 3 hrs): 102 ppm | IPBC (in ppm) leached from Paint film ([4]; leaching time 15 hrs): 65 ppm | IPBC (in ppm) leached from Paint film ([4]; leaching time 48 hrs): 78 ppm | IPBC in water (in ppm) ([3]; leaching time 5 minutes): 356 ± 4 ppm | IPBC in water (in ppm) ([3]; leaching time 1 hr): 273 ± 10 ppm | IPBC in water (in ppm) ([3]; leaching time 24 hrs): 236 ± 22 ppm

CCNc1nc(NC(C)(C)C)nc(SC)n1 [Non-encapsulated Terbutryn, Terbutryn]
Terbutryn in water (in ppm) ([3]; leaching time 5 minutes): 150 ppm | Terbutryn in water (in ppm) ([3]; leaching time 1 hr): 90 ppm | Terbutryn in water (in ppm) ([3]; leaching time 24 hrs): 79.8 ppm
